We go through one molecule from paper PMC13249053, “Mechanism of auranofin toxicity: Inhibition of tetrahydrobiopterin metabolism” (Toxicology and applied pharmacology, 2025).

The test system of one data set is cells. In words: Cell viability (alamarBlue) following drug treatments. To be noted: cells pretreated with auranofin and/or methotrexate for 2 h, then sepiapterin 3 h. A general note: The colour change of resazurin is a common sign of viable cells or microbes.
In data set [1] the target is T1, SPR (Mus musculus, UniProt Q64105).
T1 construct: endogenous in cells; host or cells: RAW264.7
T1 sequence (Q64105 whole entry): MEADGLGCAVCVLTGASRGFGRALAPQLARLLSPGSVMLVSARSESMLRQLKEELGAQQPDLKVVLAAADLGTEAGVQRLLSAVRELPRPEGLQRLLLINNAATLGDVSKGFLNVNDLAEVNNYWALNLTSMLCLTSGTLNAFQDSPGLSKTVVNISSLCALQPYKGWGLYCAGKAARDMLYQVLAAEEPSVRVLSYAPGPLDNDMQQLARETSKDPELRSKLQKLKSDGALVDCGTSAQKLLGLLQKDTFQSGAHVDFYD
In words: Cellular SPR activity: BH2 formation from sepiapterin in the presence of methotrexate, RAW264.7 cells. The data set is classed as cell-based. Conditions: RAW264.7 (mouse macrophage); with methotrexate. On the procedure: (§1) The growth medium was then removed and the cells incubated with growth medium containing 100 μM sepiapterin. […] BH2 and BH4 were then analyzed on a Jasco high-performance liquid chromatography system (Easton, MD) fitted with a Maxsil-10 C18 column (250 × 4 mm; Phenomenex, Torrance, CA). […] Cell viability following drug treatments was greater than 95 %.

In data set [2] the target is T2, SPR (Rattus norvegicus, UniProt P18297).
T2 construct: endogenous in cells; host or cells: PC12
T2 sequence (P18297 whole entry): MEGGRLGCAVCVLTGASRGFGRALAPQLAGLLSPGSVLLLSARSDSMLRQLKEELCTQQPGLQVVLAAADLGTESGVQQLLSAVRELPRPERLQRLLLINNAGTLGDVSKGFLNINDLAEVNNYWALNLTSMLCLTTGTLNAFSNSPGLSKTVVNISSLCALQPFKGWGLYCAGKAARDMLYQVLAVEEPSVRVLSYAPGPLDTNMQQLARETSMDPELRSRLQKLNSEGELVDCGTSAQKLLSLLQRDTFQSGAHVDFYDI
In words: Cellular SPR activity: BH2 formation from sepiapterin in the presence of methotrexate, PC12 cells. The data set is classed as cell-based. Conditions: PC12 (rat pheochromocytoma); with methotrexate. The protocol:
as §1

Data set [3] deals with T3, SPR (Homo sapiens, UniProt P35270). In words: Chemical (menadione) redox cycling by recombinant SPR, superoxide anion formation. Conditions: acetylated cytochrome c reduction at 550 nm, pH 7.8, read-out: IC50, inhibition of chemical redox cycling (superoxide anion production) by recombinant SPR. The data set is classed as biochemical. Also noted: made in house. On the procedure: (§2) Sepiapterin reductase activity was assayed by measuring decreases in sepiapterin absorbance at 420 nm as described by Kato ([Kato, 1971]) with some modifications. Briefly, standard reaction mixes contained 100 mM potassium phosphate buffer, pH 7.0, 100 μM NADPH, 50 μM sepiapterin and 1 μg of enzyme protein in a final volume of 0.2 ml. Changes in absorbance of sepiapterin were monitored using a Spectramax M5 microplate reader (Molecular Devices, Sunnyvale, CA). […] Chemical redox cycling by SPR was assayed by measuring the formation of superoxide anion in the presence of menadione as previously described ([Yang et al., 2013]). […] Superoxide anion was measured spectrophotometrically by the reduction of acetylated cytochrome c at 550 nm. DHFR activity was measured as previously described ([Whitsett et al., 2013]) with some modifications. […] Enzyme activity was monitored by decreases in absorbance of NADPH at 340 nm using a microplate reader. […]
T3 sequence (P35270 whole entry): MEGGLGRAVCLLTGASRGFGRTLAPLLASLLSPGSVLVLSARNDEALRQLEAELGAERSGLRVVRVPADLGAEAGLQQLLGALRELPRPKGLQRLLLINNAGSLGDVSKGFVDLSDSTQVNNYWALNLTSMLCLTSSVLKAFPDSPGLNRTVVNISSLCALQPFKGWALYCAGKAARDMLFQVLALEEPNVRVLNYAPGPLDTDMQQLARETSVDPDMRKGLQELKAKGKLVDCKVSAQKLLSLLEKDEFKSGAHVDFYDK
(§3) Fig. 5. […] SPR was measured in enzyme assays by decreases in sepiapterin absorbance at 420 nm as described in the Materials and Methods. DHFR activity in enzyme assays was measured by decreases in absorbance of NADPH at 340 nm. […] Redox cycling was measured spectrophotometrically by the reduction of acetylated cytochrome c at 550 nm during the formation of superoxide anion in enzyme assays in the presence of 100 μM menadione.

Data set [4] deals with T3, SPR. In words: Sepiapterin reduction by recombinant SPR (absorbance at 420 nm). The class given is biochemical. Further details: made in house. On the procedure: as §2, §3
The test system of data set [5] is BH4 formation in HaCaT cells. In words: BH4 formation from sepiapterin in intact HaCaT cells (HPLC). The data set is classed as cell-based, human. Conditions: intact HaCaT cells; auranofin 2 h, then 100 μM sepiapterin 3 h; read-out: IC50, inhibition of BH4 formation in intact HaCaT cells. On the procedure:
as §1
Fig. 3. Effects of auranofin on BH2 and BH4 production in intact HaCaT cells treated with sepiapterin. HaCaT cells (~1 × 10^6 cells/well in 6 well culture plates) were incubated with control medium or medium containing increasing concentrations of auranofin for 2 h followed by 100 μM sepiapterin. After an additional 3 h, BH2 and BH4 were extracted from the cells and analyzed by HPLC with fluorescence detection. Left panel: Chromatograms showing BH2 and BH4 content of control cells and cells treated with Auranofin.
Fig. 6. […] Cells were treated with control medium or medium containing MTX (1 μM, 2 h), an inhibitor of DHFR, followed by 200 μM sepiapterin (upper panel) or BH2 (lower panel). After an additional 3 h incubation, cells were rinsed with PBS; BH2 and BH4 were then extracted and analyzed by HPLC as described in the Materials and Methods.

The target of data set [6] is T4, DHFR (Mus musculus, UniProt P00375).
T4 construct: endogenous in cells; host or cells: RAW264.7
T4 sequence (P00375 1-187): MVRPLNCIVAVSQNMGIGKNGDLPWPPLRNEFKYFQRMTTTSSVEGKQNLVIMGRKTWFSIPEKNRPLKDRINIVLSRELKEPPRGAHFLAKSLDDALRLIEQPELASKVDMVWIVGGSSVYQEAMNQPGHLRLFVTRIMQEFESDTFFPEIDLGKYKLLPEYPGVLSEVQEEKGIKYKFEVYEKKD
In words: Cellular DHFR activity: BH4 formation from BH2, RAW264.7 cells. The class given is cell-based. Conditions: RAW264.7 (mouse macrophage). The protocol:
as §1

Data set [7] deals with T5, DHFR (Rattus norvegicus, UniProt Q920D2).
T5 construct: endogenous in cells; host or cells: PC12
T5 sequence (Q920D2 1-187): T4 sequence (P00375 1-187) with P27L, R85Q, R99K, I115V, G155E, V170I
In words: Cellular DHFR activity: BH4 formation from BH2, PC12 cells. The class given is cell-based. Conditions: PC12 (rat pheochromocytoma). The protocol: as §1

Positions count from the first letter of the chain named. “And” between values parts separate entries of the source, which are not always exact repeats. Equal values may be shown once.

As for `CC[PH](CC)(CC)[Au][S][C@@H]1O[C@H](COC(C)=O)[C@@H](OC(C)=O)[C@H](OC(C)=O)[C@H]1OC(C)=O` [auranofin, 2,3,4,6-tetra-O-acetyl-1-thio-β-D-glucopyranosato-S-triethyl phosphine gold], the “cell viability following drug treatments” value in the data set on cells is recorded as “greater than 95%”. Besides, the IC50 (as a rule, the concentration that gives 50% inhibition) at SPR [1] is 21.3 ± 1.58 µM; on SPR [2] it was 1000 ± 110 nM; at SPR [3] it was 600 nM; on SPR [4] (50 μM sepiapterin, 100 μM NADPH, pH 7.0, auranofin added 10 min before, read-out: IC50, inhibition of sepiapterin reduction by recombinant SPR) it was 1500 nM and 1530 nM; in data set [5] it was 7.9 µM; against DHFR [6] it was 17.2 ± 0.63 µM. Moreover, the IC50 against DHFR [7] came out at 870 ± 90 nM. The “recombinant SPR activity versus control” value on SPR [4] (10 μM auranofin, n = 3, P < 0.05) was “Significantly different”.
